From patent US20170334899A1, “AMINO-SUBSTITUTED ISOTHIAZOLES” (Bayer Pharma Aktiengesellschaft, priority 2014, published 2017)

Target: T1, human kinase Mps-1 (Homo sapiens, UniProt P33981)
T1 construct: N-terminally GST-tagged human full length recombinant Mps-1 kinase; GST (N); purchased Invitrogen, Karslruhe, Germany PV4071
T1 sequence (P33981 1-857): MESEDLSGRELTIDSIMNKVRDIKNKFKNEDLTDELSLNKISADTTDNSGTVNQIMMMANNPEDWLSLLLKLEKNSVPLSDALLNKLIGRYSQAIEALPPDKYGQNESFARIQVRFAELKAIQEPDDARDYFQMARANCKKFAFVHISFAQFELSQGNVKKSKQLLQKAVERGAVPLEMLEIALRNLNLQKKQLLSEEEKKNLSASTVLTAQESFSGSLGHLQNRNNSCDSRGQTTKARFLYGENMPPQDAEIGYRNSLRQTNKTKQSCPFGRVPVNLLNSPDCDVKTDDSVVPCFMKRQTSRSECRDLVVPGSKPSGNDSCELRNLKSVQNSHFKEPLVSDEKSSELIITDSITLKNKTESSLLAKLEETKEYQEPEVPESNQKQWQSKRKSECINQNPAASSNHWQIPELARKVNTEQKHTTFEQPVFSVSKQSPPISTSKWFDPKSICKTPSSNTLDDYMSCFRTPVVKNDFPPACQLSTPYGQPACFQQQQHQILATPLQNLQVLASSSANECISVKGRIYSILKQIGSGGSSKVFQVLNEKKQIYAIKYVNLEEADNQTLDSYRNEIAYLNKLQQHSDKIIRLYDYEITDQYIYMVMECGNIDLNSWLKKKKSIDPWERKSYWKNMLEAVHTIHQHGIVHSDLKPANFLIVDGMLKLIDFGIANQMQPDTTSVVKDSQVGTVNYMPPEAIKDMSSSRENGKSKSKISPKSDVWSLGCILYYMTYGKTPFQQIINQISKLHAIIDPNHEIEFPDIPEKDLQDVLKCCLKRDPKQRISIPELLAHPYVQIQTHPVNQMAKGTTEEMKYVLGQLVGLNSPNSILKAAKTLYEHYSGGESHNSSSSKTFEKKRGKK
Assay: Mps-1 kinase assay (TR-FRET)
Format: biochemical
Conditions: Mps-1 TR-FRET kinase assay; avg; read-out: Mps1 avg (IC50 [mol/l])
Method in brief: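 GST-tagged full-length recombinant human Mps-1 (~0.5 nM) pre-incubated 15 min with compound, then reacted 60 min at 22 °C with 10 μM ATP and 1 μM biotinylated peptide in Hepes pH 7.7 buffer. EDTA-stopped; TR-FRET (Eu anti-phospho-Ser/Thr to SA-XLent) 665/620 nm ratio normalised to no-inhibitor and no-enzyme controls.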

| IC50 [µM] | SMILES |
| --- | --- |
| ≥ 20 | Cc1nsc(Nc2cnc3ccccc3n2)c1C(=O)Nc1ccc(OC2CCN(CC(F)(F)F)CC2)nc1 [Example 21, 3-Methyl-5-(quinoxalin-2-ylamino)-N-(6-{[1-(2,2,2-trifluoroethyl)piperidin-4-yl]oxy}-pyridin-3-yl)-1,2-thiazole-4-carboxamide] |
| ≥ 20 | CC(=O)N1CCC(Oc2ccc(NC(=O)c3c(C)nsc3Nc3cnc4ccccc4n3)cn2)CC1 [Example 22, N-{6-[(1-acetylpiperidin-4-yl)oxy]pyridin-3-yl}-3-methyl-5-(quinoxalin-2-ylamino)-1,2-thiazole-4-carboxamide] |
| 17 | Cc1nsc(Nc2cc(C#N)ccn2)c1C(=O)Nc1ccc(OC2CCN(C(=O)OC(C)(C)C)CC2)nc1 [Example 23, tert-Butyl 4-({5-[({5-[(4-cyanopyridin-2-yl)amino]-3-methyl-1,2-thiazol-4-yl}-carbonyl)amino]pyridin-2-yl}oxy)piperidine-1-carboxylate] |
| 9 | Cc1nsc(Nc2cc(C#N)ccn2)c1C(=O)Nc1ccc(OC2CCNCC2)nc1 [Example 24, 5-[(4-Cyanopyridin-2-yl)amino]-3-methyl-N-[6-(piperidin-4-yloxy)pyridin-3-yl]-1,2-thiazole-4-carboxamide] |
| ≥ 20 | Cc1nsc(Nc2cc(C#N)ccn2)c1C(=O)Nc1ccc(OC2CCN(CC(F)(F)F)CC2)nc1 [Example 25, 5-[(4-Cyanopyridin-2-yl)amino]-3-methyl-N-(6-{[1-(2,2,2-trifluoroethyl)piperidin-4-yl]oxy}pyridin-3-yl)-1,2-thiazole-4-carboxamide] |
| ≥ 20 | CCN1CCC(Oc2ccc(NC(=O)c3c(C)nsc3Nc3cc(C#N)ccn3)cn2)CC1 [Example 26, 5-[(4-Cyanopyridin-2-yl)amino]-N-{6-[(1-ethylpiperidin-4-yl)oxy]pyridin-3-yl}-3-methyl-1,2-thiazole-4-carboxamide] |
| > 20 | Cc1nsc(Nc2cnc3ccccc3n2)c1C(=O)Nc1ccc(N2CCN(C(=O)OC(C)(C)C)CC2)nc1 [Example 248, tert-butyl 4-[5-({[3-methyl-5-(quinoxalin-2-ylamino)-1,2-thiazol-4-yl]carbonyl}amino)pyridin-2-yl]piperazine-1-carboxylate] |
| > 20 | Cc1nsc(Nc2cnc3ccccc3n2)c1C(=O)Nc1cccc(C(=O)NC2CC2)c1 [Example 249, N-[3-(cyclopropylcarbamoyl)phenyl]-3-methyl-5-(quinoxalin-2-ylamino)-1,2-thiazole-4-carboxamide] |
| > 20 | Cc1nsc(Nc2ccc(C#N)cn2)c1C(=O)Nc1cccc(C(=O)NC2CC2)c1 [Example 250, 5-[(5-cyanopyridin-2-yl)amino]-N-[3-(cyclopropylcarbamoyl)phenyl]-3-methyl-1,2-thiazole-4-carboxamide] |
| > 20 | CCNC(=O)c1cccc(NC(=O)c2c(C)nsc2Nc2cnc3ccccc3n2)c1 [Example 251, N-[3-(ethylcarbamoyl)phenyl]-3-methyl-5-(quinoxalin-2-ylamino)-1,2-thiazole-4-carboxamide] |
| > 20 | CCNC(=O)c1cccc(NC(=O)c2c(C)nsc2Nc2ccc(C#N)cn2)c1 [Example 252, 5-[(5-cyanopyridin-2-yl)amino]-N-[3-(ethylcarbamoyl)phenyl]-3-methyl-1,2-thiazole-4-carboxamide] |
| > 20 | Cc1nsc(Nc2cnc3ccccc3n2)c1C(=O)Nc1cccc(C(=O)NC(C)C)c1 [Example 253, N-[3-(isopropylcarbamoyl)phenyl]-3-methyl-5-(quinoxalin-2-ylamino)-1,2-thiazole-4-carboxamide] |
| > 20 | Cc1nsc(Nc2cc(C#N)ccn2)c1C(=O)Nc1cccc(C(=O)NC(C)C)c1 [Example 254, 5-[(4-cyanopyridin-2-yl)amino]-N-[3-(isopropylcarbamoyl)phenyl]-3-methyl-1,2-thiazole-4-carboxamide] |
| > 20 | Cc1nsc(Nc2ccc(C#N)cn2)c1C(=O)Nc1cccc(C(=O)NC(C)C)c1 [Example 255, 5-[(5-cyanopyridin-2-yl)amino]-N-[3-(isopropylcarbamoyl)phenyl]-3-methyl-1,2-thiazole-4-carboxamide] |
| > 20 | COC(=O)CCCc1ccc(NC(=O)c2c(C)nsc2Nc2cc(C#N)ccn2)cc1 [Example 256, methyl 4-{4-[({5-[(4-cyanopyridin-2-yl)amino]-3-methyl-1,2-thiazol-4-yl}carbonyl)amino]phenyl}butanoate] |
| > 20 | COC(=O)CCc1cccc(NC(=O)c2c(C)nsc2Nc2cnc3ccccc3n2)c1 [Example 257, methyl 3-[3-({[3-methyl-5-(quinoxalin-2-ylamino)-1,2-thiazol-4-yl]carbonyl}amino)phenyl]propanoate] |
| > 20 | Cc1nsc(Nc2cnc3ccccc3n2)c1C(=O)Nc1cccc(NS(=O)(=O)C2CCN(C(=O)OC(C)(C)C)CC2)c1 [Example 258, tert-butyl 4-{[3-({[3-methyl-5-(quinoxalin-2-ylamino)-1,2-thiazol-4-yl]carbonyl}amino)phenyl]sulfamoyl} piperidine-1-carboxylate] |
| > 20 | Cc1nsc(Nc2cnc(C(F)(F)F)cn2)c1C(=O)Nc1ccc(C(=O)NC2CCN(CC(F)F)CC2)cc1 [Example 259, N-(4-{[1-(2,2-difluoroethyl)piperidin-4-yl]carbamoyl}phenyl)-3-methyl-5-{[5-(trifluoromethyl)pyrazin-2-yl]amino}-1,2-thiazole-4-carboxamide] |
| > 20 | Cc1nsc(Nc2cnc(C(F)(F)F)cn2)c1C(=O)Nc1ccc(C(=O)N2CCN(CC(F)(F)F)CC2)cc1 [Example 260, 3-methyl-N-(4-{[4-(2,2,2-trifluoroethyl)piperazin-1-yl]carbonyl}phenyl)-5-{[5-(trifluoromethyl)pyrazin-2-yl]amino}-1,2-thiazole-4-carboxamide] |
| > 20 | CCN1CCN(C(=O)c2ccc(NC(=O)c3c(C)nsc3Nc3cnc(C(F)(F)F)cn3)cc2)CC1 [Example 261, N-{4-[(4-ethylpiperazin-1-yl)carbonyl]phenyl}-3-methyl-5-{[5-(trifluoromethyl)pyrazin-2-yl]amino}-1,2-thiazole-4-carboxamide] |
| > 20 | Cc1nsc(Nc2cnc(C(F)(F)F)cn2)c1C(=O)Nc1ccc(C(=O)N2CCN(C)CC2)cc1 [Example 262, 3-methyl-N-{4-[(4-methylpiperazin-1 yl)carbonyl]phenyl}-5-{[5-(trifluoromethyl)pyrazin-2-yl]amino}-1,2-thiazole-4-carboxamide] |
| > 20 | Cc1nsc(Nc2cc(C#N)ccn2)c1C(=O)Nc1ccc(OC2CCN(CC(F)F)CC2)nc1 [Example 263, 5-[(4-cyanopyridin-2-yl)amino]-N-(6-{[1-(2,2-difluoroethyl)piperidin-4-yl]oxy}pyridin-3-yl)-3-methyl-1,2-thiazole-4-carboxamide] |
| > 20 | Cc1nsc(Nc2cnc(C(F)(F)F)cn2)c1C(=O)Nc1ccc(F)c(OC2CCN(CC(F)(F)F)CC2)c1 [Example 264, N-(4-fluoro-3-{[1-(2,2,2-trifluoroethyl)piperidin-4-yl]oxy}phenyl)-3-methyl-5-{[5-(trifluoromethyl)pyrazin-2-yl]amino}-1,2-thiazole-4-carboxamide] |
| > 20 | Cc1nsc(Nc2cnc(C(F)(F)F)cn2)c1C(=O)Nc1ccc(F)c(OC2CCN(CC(F)F)CC2)c1 [Example 265, N-(3-{[1-(2,2-difluoroethyl)piperidin-4-yl]oxy}-4-fluorophenyl)-3-methyl-5-{[5-(trifluoromethyl)pyrazin-2-yl]amino}-1,2-thiazole-4-carboxamide] |
| > 20 | Cc1nsc(Nc2cnc(C(F)(F)F)cn2)c1C(=O)Nc1ccc(F)c(OC2CCN(CCF)CC2)c1 [Example 266, N-(4-fluoro-3-{[1-(2-fluoroethyl)piperidin-4-yl]oxy}phenyl)-3-methyl-5-{[5-(trifluoromethyl)pyrazin-2-yl]amino}-1,2-thiazole-4-carboxamide] |
| > 20 | Cc1nsc(Nc2cncc(C(F)(F)F)n2)c1C(=O)Nc1ccc(F)c(OC2CCN(CC(F)(F)F)CC2)c1 [Example 267, N-(4-fluoro-3-{[1-(2,2,2-trifluoroethyl)piperidin-4-yl]oxy}phenyl)-3-methyl-5-{[6-(trifluoromethyl)pyrazin-2-yl]amino}-1,2-thiazole-4-carboxamide] |
| > 20 | Cc1nsc(Nc2cncc(C(F)(F)F)n2)c1C(=O)Nc1ccc(F)c(OC2CCN(CC(F)F)CC2)c1 [Example 268, N-(3-{[1-(2,2-difluoroethyl)piperidin-4-yl]oxy}-4-fluorophenyl)-3-methyl-5-{[6-(trifluoromethyl)pyrazin-2-yl]amino}-1,2-thiazole-4-carboxamide] |
